Earlier results, collected in US20170217996A1, “Large-scale diastereoselective syntheses of cycloheptadienylsulfones and stereotetrads” (Purdue Research Foundation, priority 2014, published 2017).

Columns and labels:
actin = settings: in vitro
Colon 26 carcinoma = settings: mice
Ehrlich carcinoma = settings: mice
B16 melanoma = settings: mice
tubulin = settings: in association with actin
Lewis lung = settings: mice
P388 leukemia = settings: mice

## COCC(C(=O)O[C@@H]1C/C=C/C=C/C(=O)O[C@H]([C@@H](C)[C@@H](O)[C@@H](C)CC[C@@H](OC(=O)C(C)N(C)C)[C@H](C)[C@H](OC(C)=O)[C@H](C)/C=C/N(C)C=O)C/C=C/[C@H](OC)C[C@H](C)C/C=C(\C)[C@@H](OC)CC[C@@H](C)[C@@H](O)[C@@H]1C)N(C)C (stereo partly drawn) [ApA, Aplyronine A]
actin
  inhibition of actin polymerization: inhibit actin polymerization in vitro to the same extent
Colon 26 carcinoma
  increase of lifespan: 255%
Ehrlich carcinoma
  increase of lifespan: 398%
Actin and tubulin
  complex with actin and tubulin: 1:1:1 heterotrimeric complex
B16 melanoma
  increase of lifespan: 201%
tubulin
  inhibition of tubulin polymerization: inhibits tubulin polymerization
HeLa S3 cells
  concentration that inhibits spindle formation and mitosis: 100 pM
Lewis lung
  increase of lifespan: 566%
P388 leukemia
  increase of lifespan: 545%
